# Earlier results, collected in patent publication US20090227666A1, “Enhancing Disease Resistance In An Animal” (Hill's Pet Nutrition, Inc., priority 2007, published 2009).
# Tested on: CD8+ T cell population
# Conditions: moderate (101 mg/kg of food) or high (447 mg/kg of food) versus low-normal (17 mg/kg of food)
structure (smiles),measurement,value
CC(=O)Oc1c(C)c(C)c2c(c1C)CCC(C)(CCC[C@H](C)CCC[C@H](C)CCCC(C)C)O2 (stereo partly drawn) [α-tocopheryl acetate],percentages of CD8+ cells,increased percentages of CD8+ cells
